Source: US9359298B2, “Cajanine structure analogous compound, preparation method and use” (INSTITUTE OF MEDICINAL BIOTECHNOLOGY, CHINESE ACADEMY OF …, priority 2011, dated 2016)
Values after ≈ are worked out from the molar mass of the structure shown. Read-outs that look alike come from different tables or passages of the source.

What was measured:
Assay type in all cases: cell-based
HIV-1 III B virus = experiment: Anti-HIV activity assay (P24 antigen in MT-4 cells); conditions: for IC50: Human immunodeficiency virus 1, MT4, 96 h, MT-4 cells, HIV-1 III B 100TCID50, 96 h, P24 antigen, read-out: HIV IC50
PC12 cells [1] = experiment: Neuroprotective activity assay, rotenone injury to PC12 cells (MTT); conditions: Rattus norvegicus, PC-12, 48 h, 10 μM test compound, 4 μM rotenone, 48 h; Control 100.0 ± 8.9, Model 73.2 ± 7.8; read-out: rotenone (surviving PC12 cells, MTT 570 nm)
Experimental: (§1) Discard the original culture media from confluent monolayers of PC12 cells (simulated neuronal cells), add DMEM complete medium with 5% FBS, 5% horse serum gently beat upon the cells with a pipette to completely disperse them, inoculate 100 μl cell suspension at a density of […] per well to 96 hole plates treated with poly-lysine (0.1 mg/ml) in advance, culture for 24h. Divide the experimenting cells into control group, model group and dosing groups. Add complete medium to the control group. Model groups includes rotenone group and serum-deprived group, add rotenone to the corresponding modules with a final concentration of 4 μM rotenone to take effect on the cells for 48 h, add serum-deprived groups with serum-free DMEM medium to take effect on the cells for 48 h. Dosing groups also includes two groups, one using rotenone module as model, another using serum-deprived module as model, and both add in 10 μM test compounds during modeling. 48h later, add 10 μl 5 mg/ml MTT, subsequently discard the supernatant 4h later and add in 150 μl DMSO, measure 570 nm absorbance to represent the numbers of surviving cells.

HCV = experiment: Anti-hepatitis C virus (HCV) activity assay (HCV RNA in Huh7.5 cells); conditions: for EC50: Hepatitis C virus, Huh7.5, 72 h, read-out: HCV EC50
Experimental: Inoculate Huh7.5 cells into 96-well plates to a density of 3×10^4 cells/cm^2, culture for 24h, infect the cells with 45 IU/cell HCV supernatant, meanwhile, add drug solutions or solvent control for treatment.

[2] = tested on: Influenza A virus (hanfang359/95); experiment: Determination of anti-influenza virus activity (CPE in MDCK cells); conditions: for IC50: Influenza A virus, MDCK, 36 h; for anti-influenza virus activities compared with the lead compound cajanine: statement in words
PC12 cells [3] = experiment: Neuroprotective activity assay, serum-deprived injury to PC12 cells (MTT); conditions: Rattus norvegicus, PC-12, 48 h, 10 μM test compound, 48 h; Control 100.0 ± 9.2, Model 69.3 ± 4.1; read-out: serum-deprived (surviving PC12 cells, MTT 570 nm)
Experimental: as §1

Coxsackie virus B6 = experiment: Coxsackie virus activity assay (CPE in Vero cells); conditions: Vero, read-out: COX-B6 IC50, Vero cells, about 100TCID50, CPE, Reed-Muench
[4] = Huh7.5 cells, 72 h, HCV RNA by RT-PCR, Reed-Muench

SMILES	IC50 (HIV-1 III B virus)	viability at 10 µM (PC12 cells [1])	EC50 (HCV; [4])	IC50 [2]	anti-influenza virus activities compared with the lead compound cajanine [2]	viability at 10 µM (PC12 cells [3])	IC50 (Coxsackie virus B6)	EC50 (HCV)	anti-HIV viral activity (HIV-1 III B virus; statement in words)	anti-HCV viral activity (HCV; statement in words)
COc1cc(/C=C/c2ccccc2)c(C(=O)Nc2ccc(Cl)cc2)c(O)c1CC=C(C)C [Compound 9h, N-p-chlorophenyl2-hydroxy-3-isopentenyl-4-methoxy-6-[(E)-styryl]benzamide]	3.38 µg/mL (≈ 7.55 µM)	79.8 ± 2.1%	1.33 µg/mL (≈ 2.97 µM)	0.47 µg/mL (≈ 1.05 µM)	significantly stronger than the lead compound cajanine	84.5 ± 5.1%	2.98 µg/mL (≈ 6.65 µM)			
COc1cc(/C=C/c2ccccc2)c(C(=O)O)c(OC)c1CC=C(C)C [Compound 15, 2-methoxy-3-isopentenyl-4-methoxy-6-[(E)-styryl]benzoic acid]	1.43 µg/mL (≈ 4.06 µM)	83.1 ± 5.7%	0.83 µg/mL (≈ 2.36 µM)	> 0.23 µg/mL		74.1 ± 2.5%	> 2.06 µg/mL			
COc1cc(CCc2ccccc2)c(C(=O)O)c(O)c1CC=C(C)C [Compound 37, 2-hydroxy-3-isopentenyl-4-methoxy-6-phenethyl benzoic acid]	2.09 µg/mL (≈ 6.14 µM)	60.4 ± 7.8%	12.2 µg/mL (≈ 35.8 µM)	> 22.2 µg/mL		29 ± 11.2%	> 2.05 µg/mL			
COc1cc(/C=C/c2ccc(O)cc2)c(C(=O)O)c(O)c1CC=C(C)C [Compound 1q]	1.86 µg/mL (≈ 5.25 µM)	78.9 ± 5.3%	2.3 µg/mL (≈ 6.49 µM)	2.35 µg/mL (≈ 6.63 µM)	significantly stronger than the lead compound cajanine	79.6 ± 2.8%	0.86 µg/mL (≈ 2.43 µM)			
COc1cc(/C=C/c2ccccc2)cc(O)c1CCC(C)C [Compound 10w, 2-isopentyl-3-methoxy-5-[(E)-styryl]phenol]	0.75 µg/mL (≈ 2.53 µM)	78.2 ± 5.8%	2.59 µg/mL (≈ 8.74 µM)	0.53 µg/mL (≈ 1.79 µM)	significantly stronger than the lead compound cajanine	79.1 ± 4.6%	2.45 µg/mL (≈ 8.27 µM)			
COC(=O)c1c(/C=C/c2ccc(OC)cc2)cc(OC)c(CC=C(C)C)c1O [Compound 8c, methyl 2-hydroxy-3-isopentenyl-4-methoxy-6-[(E)-4-methoxystyryl]-benzoate]	1.99 µg/mL (≈ 5.2 µM)	71.9 ± 6.1%	3.06 µg/mL (≈ 8 µM)	> 2.06 µg/mL		67.3 ± 10%	4.79 µg/mL (≈ 12.5 µM)			
COc1ccnc(/C=C/c2cc(OC)c(CC=C(C)C)c(O)c2C(=O)O)c1 [Compound 1v, 2-hydroxy-3-isopentenyl-4-methoxy-6-[(E)-2-(4-methoxypyrid-2-yl)ethenyl]benzoic acid]	1.48 µg/mL (≈ 4.01 µM)	87.2 ± 2.6%		2.31 µg/mL (≈ 6.25 µM)		79.9 ± 1.6%	1.25 µg/mL (≈ 3.38 µM)	1.25 µg/mL (≈ 3.38 µM)		
COc1cc(/C=C/c2cc(OC)c(OC)c(OC)c2)cc(O)c1CC=C(C)C [Compound 10y, 2-isopentenyl-3-methoxy-5-[(E)-3,4,5-trimethoxystyryl]phenol]	1.66 µg/mL (≈ 4.32 µM)	89.5 ± 2.5%	1.39 µg/mL (≈ 3.62 µM)	0.13 µg/mL (≈ 0.338 µM)	significantly stronger than the lead compound cajanine	89.1 ± 5.4%	2.58 µg/mL (≈ 6.71 µM)			
COc1cc(/C=C/c2cc(O)c(O)c(O)c2)cc(OC)c1 [Compound 21j, 1,3-dimethoxy-5-[(E)-3,4,5-trihydroxystyryl]benzene]	1.04 µg/mL (≈ 3.61 µM)	75.6 ± 4.6%	1.33 µg/mL (≈ 4.61 µM)	0.98 µg/mL (≈ 3.4 µM)		69.3 ± 2.5%	1.34 µg/mL (≈ 4.65 µM)			
COc1cc(/C=C/c2ccc(O)cn2)c(C(=O)O)c(O)c1CC=C(C)C [Compound 1y]	0.63 µg/mL (≈ 1.77 µM)	89.7 ± 1.9%	0.86 µg/mL (≈ 2.42 µM)	4.25 µg/mL (≈ 12 µM)		87.6 ± 1.6%	5.84 µg/mL (≈ 16.4 µM)		stronger anti-HIV, HCV viral activities	stronger anti-HIV, HCV viral activities
COC(=O)c1c(/C=C/c2cc(OC)cc(OC)n2)cc(OC)c(CC=C(C)C)c1O [Compound 8x, methyl 2-hydroxy-3-isopentenyl-4-methoxy-6-[(E)-2-(4,6-dimethoxypyrid-2-yl)ethenyl]benzoate]	0.79 µg/mL (≈ 1.91 µM)	76.5 ± 1.8%	1.87 µg/mL (≈ 4.52 µM)	0.65 µg/mL (≈ 1.57 µM)	significantly stronger than the lead compound cajanine	79.8 ± 2.6%	4.58 µg/mL (≈ 11.1 µM)			
